Results reported in US20260337212A1, “IP4-4,6 SUBSTITUTED DERIVATIVE COMPOUNDS FOR USE IN THE TREATMENT, INHIBITION OF PROGRESSION, AND PREVENTION OF ECTOPIC CALCIFICATION” (SANIFIT THERAPEUTICS, S.A., priority 2022, published 2026).

Assays:
[1] = In vitro inhibition of calcium phosphate crystallization in human plasma (spectrophotometric); format: biochemical; settings: 0-100 μM, 1.5 mM phosphate, 12.5 mM calcium, pH 7.4, 30 min, rt, read-out: Relative Potency (EC50, inhibition of calcium phosphate crystallization)
Summary of the method: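 Human plasma spiked with compound (0-100 μM), centrifuged, then brought to final 1.5 mM phosphate and 12.5 mM calcium, pH 7.4. Absorbance at 550 nm read every 3 min for 30 min at rt; inhibition from slopes (6-24 min, absorbance vs log time) relative to blank plasma.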

[2] = Rat vitamin D3 model: walking ability, forced incremental treadmill test; format: in vivo, Sprague Dawley rat
Experimental: FIG. 14 depicts the mean maximum walking distance (±SD) in Sham rats (no VitD3 treatment) and rats treated with vehicle, Compound 27 (5, 15, and 45 mg/kg). Statistical analysis: One-way ANOVA with Fisher's LSD test for post-hoc comparisons. The result of the ANOVA was p<0.0001. (#) indicates significant differences vs. sham, (*) indicates significant differences vs vehicle, (§) indicates significant differences vs Compound 27 5 mg/kg (only applies to other Compound 27 doses), (¥) indicates significant differences vs Compound 27 15 mg/kg (only applies to Compound 27 45 mg/kg), (‡) significant differences vs Compound 27 45 mg/kg, p<0.05.
The model evaluated the effects of Compound 27 on tissue calcification, blood perfusion, and walking ability in rats for a duration of 13 days. Tissue calcification was induced in groups 2-5 from D1 to D3. […] The impact of treatment on tissue calcification, blood perfusion, and walking ability was evaluated. […]
Maximal walking time (MWT) and maximal walking distance (MWD) were assessed by forced incremental treadmill running tests using a two-lane touch screen treadmill device for rats (Cat. No. LE8709TS, Panlab, Harvard Biosciences, Inc., Holliston, MA, US) with a 15% inclination. […]
For group 2, the treadmill assessment started 15 min after dosing. […] MWD (in meters) and MWT (in minutes) were recorded for each animal.

EC50 [1]: ≤ 5 µM
Substance: 4,6-O-bis(5-acetamidopentyl)-myo-inositol-1,2,3,5-tetrakis(phosphate) octasodium salt [Compound 27]
Effect on maximum walking distance ([2]; 5, 15, 45 mg/kg s.c. daily, FIG. 14): dose-response effect from 5 mg/kg
Improvement of walking ability ([2]; 15 and 45 mg/kg s.c. daily, as early as D5 after induction): improves the walking ability of rats administered with vitamin D as early as D5 after the induction of the PAD disease, in a dose-response manner
